Test results from PubChem BioAssay (NCI).
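Briefly, cells in 96-well plates were exposed to five compound concentrations for 48 h, and endpoints were estimated by linear interpolation. Definition used: TGI = concentration required for complete inhibition of growth.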

How the values were obtained:
Assay in all cases: DTP human tumour cell line panel, 48 h
A549 NSCLC = test system: A549 NSCLC
ACHN renal = test system: ACHN renal
CAKI-1 renal = test system: CAKI-1 renal
CCRF-CEM leukemia = test system: CCRF-CEM leukemia
COLO 205 colon = test system: COLO 205 colon
DLD-1 colon = test system: DLD-1 colon
DMS 114 small cell lung = test system: DMS 114 small cell lung
DMS 273 small cell lung = test system: DMS 273 small cell lung
EKVX NSCLC = test system: EKVX NSCLC
HCC-2998 colon = test system: HCC-2998 colon
HCT-116 colon = test system: HCT-116 colon
HCT-15 colon = test system: HCT-15 colon
HL-60(TB) leukemia = test system: HL-60(TB) leukemia
HOP-18 NSCLC = test system: HOP-18 NSCLC
HOP-92 NSCLC = test system: HOP-92 NSCLC
IGROV1 ovarian = test system: IGROV1 ovarian
K-562 leukemia = test system: K-562 leukemia
KM12 colon = test system: KM12 colon
KM20L2 colon = test system: KM20L2 colon
LOX IMVI melanoma = test system: LOX IMVI melanoma
LXFL 529 NSCLC = test system: LXFL 529 NSCLC
M14 melanoma = test system: M14 melanoma
M19-MEL melanoma = test system: M19-MEL melanoma
MALME-3M melanoma = test system: MALME-3M melanoma
MOLT-4 leukemia = test system: MOLT-4 leukemia
NCI-H226 lung = test system: NCI-H226 lung
NCI-H23 lung = test system: NCI-H23 lung
NCI-H460 lung = test system: NCI-H460 lung
OVCAR-4 ovarian = test system: OVCAR-4 ovarian
OVCAR-5 ovarian = test system: OVCAR-5 ovarian
OVCAR-8 ovarian = test system: OVCAR-8 ovarian
RPMI-8226 leukemia = test system: RPMI-8226 leukemia
RXF 393 renal = test system: RXF 393 renal
SF-268 CNS = test system: SF-268 CNS
SF-295 CNS = test system: SF-295 CNS
SF-539 CNS = test system: SF-539 CNS
SK-MEL-2 melanoma = test system: SK-MEL-2 melanoma
SK-MEL-28 melanoma = test system: SK-MEL-28 melanoma
SK-MEL-5 melanoma = test system: SK-MEL-5 melanoma
SK-OV-3 ovarian = test system: SK-OV-3 ovarian
SN12C renal = test system: SN12C renal
SNB-19 CNS = test system: SNB-19 CNS
SNB-75 CNS = test system: SNB-75 CNS
SNB-78 CNS = test system: SNB-78 CNS
SR leukemia = test system: SR leukemia
SW-620 colon = test system: SW-620 colon
TK-10 renal = test system: TK-10 renal
U251 CNS = test system: U251 CNS
UACC-257 melanoma = test system: UACC-257 melanoma
UO-31 renal = test system: UO-31 renal
XF 498 CNS = test system: XF 498 CNS

Measured: TGI

O=C(O)C(Cl)(Cl)Cl
> 100 µM: all assays above
